Measured values from patent US20250346585A1 (Alexion Pharmaceuticals, Inc., priority 2022, published 2025).

The compounds below were run against Human complement C1s enzyme (Homo sapiens (Human), UniProt P09871) (assay: Human C1s enzyme assay). Conditions: Human C1s enzyme assay of Example 3; read-out: IC50 (Stars).
Assay type: biochemical
Experimental: Human complement C1s enzyme (purified from human serum, Complement Technology, Inc.) at 1.16 nM final concentration was incubated with test compound at various concentrations for 5 min at room temperature in 50 mM Tris, 1 M NaCl, pH 7.5. A synthetic substrate Z-L-Lys-SBzl and DTNB (Ellman's reagent) were added to final concentrations of 100 μM each. Absorbance at 405 nm (A405) was recorded at 30 second intervals for 30 min using a microplate spectrophotometer. IC50 values were calculated by nonlinear regression of complement C1s reaction rates as a function of test compound concentration.

Sequence of Human complement C1s enzyme (P09871 438-688 limits assumed): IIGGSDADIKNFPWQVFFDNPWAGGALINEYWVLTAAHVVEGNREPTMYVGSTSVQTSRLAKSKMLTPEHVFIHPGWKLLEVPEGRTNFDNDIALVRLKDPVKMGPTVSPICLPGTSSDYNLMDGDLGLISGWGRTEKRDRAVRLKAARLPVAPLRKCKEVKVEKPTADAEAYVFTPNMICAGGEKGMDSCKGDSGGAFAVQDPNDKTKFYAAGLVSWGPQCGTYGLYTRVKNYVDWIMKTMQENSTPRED
Sequence of Human complement C1s enzyme (P09871 16-437 partner limits assumed): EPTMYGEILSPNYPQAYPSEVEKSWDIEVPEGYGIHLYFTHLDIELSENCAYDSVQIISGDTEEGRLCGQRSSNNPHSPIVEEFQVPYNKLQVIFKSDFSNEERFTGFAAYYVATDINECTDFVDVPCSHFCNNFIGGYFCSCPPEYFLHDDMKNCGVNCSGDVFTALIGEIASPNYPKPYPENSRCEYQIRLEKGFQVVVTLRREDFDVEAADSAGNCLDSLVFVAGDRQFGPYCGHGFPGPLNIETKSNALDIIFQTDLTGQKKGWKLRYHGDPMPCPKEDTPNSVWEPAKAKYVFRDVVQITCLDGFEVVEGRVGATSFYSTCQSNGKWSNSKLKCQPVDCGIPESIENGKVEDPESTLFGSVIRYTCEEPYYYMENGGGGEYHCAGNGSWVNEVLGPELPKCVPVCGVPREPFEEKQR

Structure (SMILES)	IC50
C[C@@H](NC(=O)[C@@H]1C[C@](F)(CF)CN1C(=O)CNC(=O)c1ccc(Oc2ccc(C(F)(F)F)cc2)cc1)c1cc(C(=N)N)cs1 [Compound 15, (2S,4R)—N-[(1R)-1-(4-carbamimidoylthiophen-2-yl)ethyl]-4-fluoro-4-(fluoromethyl)-1-[2-({4-[4-(trifluoromethyl)phenoxy]phenyl}formamido)acetyl]pyrrolidine-2-carboxamide]	< 100 nM
Nc1ncccc1-c1csc(CNC(=O)[C@@H]2CC3(CN2C(=O)CNC(=O)c2ccc(Oc4ccc(F)cc4)cc2)OCCO3)c1 [Compound 122, (S)—N-((4-(2-aminopyridin-3-yl)thiophen-2-yl)methyl)-7-((4-(4-fluorophenoxy)benzoyl)glycyl)-1,4-dioxa-7-azaspiro[4.4]nonane-8-carboxamide]	> 1000 nM
C[C@@H](NC(=O)[C@@H]1CC2(CN1C(=O)CNC(=O)c1ccc(-c3ccccc3)cc1)OCCO2)c1cc(C(=N)N)cs1 [Compound 90, (S)-7-(([1,1′-biphenyl]-4-carbonyl)glycyl)-N—((R)-1-(4-carbamimidoylthiophen-2-yl)ethyl)-1,4-dioxa-7-azaspiro[4.4]nonane-8-carboxamide]	< 100 nM
C[C@@H](NC(=O)[C@@H]1CC2(CN1C(=O)CNC(=O)c1ccc3c(c1)-c1ccccc1C3(F)F)OCCO2)c1ccc(-c2ncc[nH]2)s1 [Compound 135, (S)—N—((R)-1-(5-(1H-imidazol-2-yl)thiophen-2-yl)ethyl)-7-((9,9-difluoro-9H-fluorene-3-carbonyl)glycyl)-1,4-dioxa-7-azaspiro[4.4]nonane-8-carboxamide]	> 1000 nM
Cc1ccc2c(c1)-c1cc(C(=O)NCC(=O)N3CC4(C[C@H]3C(=O)N[C@H](C)c3cc(C(=N)N)cs3)OCCO4)ccc1C2(F)F [Compound 180, (S)—N—((R)-1-(4-carbamimidoylthiophen-2-yl)ethyl)-7-((9,9-difluoro-6-methyl-9H-fluorene-3-carbonyl)glycyl)-1,4-dioxa-7-azaspiro[4.4]nonane-8-carboxamide]	< 100 nM
Cc1cccc(C)c1-c1ccc(C(=O)NCC(=O)N2CC3(C[C@H]2C(=O)NCc2cc(C(=N)N)cs2)OCCO3)cc1 [Compound 197, (S)—N-((4-carbamimidoylthiophen-2-yl)methyl)-7-((2′,6′-dimethyl-[1,1′-biphenyl]-4-carbonyl)glycyl)-1,4-dioxa-7-azaspiro[4.4]nonane-8-carboxamide]	< 100 nM
N=C(N)c1csc(CNC(=O)[C@@H]2CC3(CN2C(=O)CNC(=O)c2ccc(Oc4ccccc4)cc2F)OCCO3)c1 [Compound 74, (S)—N-((4-carbamimidoylthiophen-2-yl)methyl)-7-((2-fluoro-4-phenoxybenzoyl)glycyl)-1,4-dioxa-7-azaspiro[4.4]nonane-8-carboxamide]	< 100 nM

Same assay, conditions: Human complement C1s enzyme 1.16 nM, substrate Z-L-Lys-SBzl 100 μM, assay of Example 3; read-out: IC50 (Stars)

Structure (SMILES)	IC50
CS(=O)(=O)[C@@H]1C[C@@H](C(=O)N[C@H](CO)c2cc(C(=N)N)cs2)N(C(=O)CNC(=O)c2ncc(-c3ccccc3)cc2F)C1 [Compound 383, N-(2-((2S,4R)-2-(((R)-1-(4-carbamimidoylthiophen-2-yl)-2-hydroxyethyl)carbamoyl)-4-(methylsulfonyl)pyrrolidin-1-yl)-2-oxoethyl)-3-fluoro-5-phenylpicolinamide]	< 100 nM
C[C@H](NC(=O)c1ccc(-c2ccccc2)cc1)C(=O)N1CC2(C[C@H]1C(=O)NCc1cc(C(=N)N)cs1)OCCO2 [Compound 300, (S)-7-(([1,1′-biphenyl]-4-carbonyl)-L-alanyl)-N-((4-carbamimidoylthiophen-2-yl)methyl)-1,4-dioxa-7-azaspiro[4.4]nonane-8-carboxamide]	< 100 nM
N=C(N)c1csc(CCNC(=O)[C@@H]2CC3(CN2C(=O)CNC(=O)c2ccc4c(c2)-c2ccccc2C4(F)F)OCCO3)c1 [Compound 251, (S)—N-(2-(4-carbamimidoylthiophen-2-yl)ethyl)-7-((9,9-difluoro-9H-fluorene-3-carbonyl)glycyl)-1,4-dioxa-7-azaspiro[4.4]nonane-8-carboxamide]	< 100 nM
C[C@@H](NC(=O)[C@@H]1CC2(CN1C(=O)CN1Cc3ccc(-c4ccccc4)cc3C1=O)OCCO2)c1cc(C(=N)N)cs1 [Compound 386, (S)—N—((R)-1-(4-carbamimidoylthiophen-2-yl)ethyl)-7-(2-(1-oxo-6-phenylisoindolin-2-yl)acetyl)-1,4-dioxa-7-azaspiro[4.4]nonane-8-carboxamide]	< 100 nM
Nc1csc(CNC(=O)[C@@H]2CC3(CN2C(=O)CNC(=O)c2ccc(Oc4ccc(F)cc4)cc2)OCCO3)c1 [Compound 244, (S)—N-((4-aminothiophen-2-yl)methyl)-7-((4-(4-fluorophenoxy)benzoyl)glycyl)-1,4-dioxa-7-azaspiro[4.4]nonane-8-carboxamide]	> 1000 nM
C[C@@H](NC(=O)[C@@H]1C[C@@H](OC(F)F)CN1C(=O)CNC(=O)c1ccc2c(c1)Oc1ccccc1S2)c1cc(C(=N)N)cs1 [Compound 328, (2S,4R)—N—((R)-1-(4-carbamimidoylthiophen-2-yl)ethyl)-4-(difluoromethoxy)-1-((phenoxathiine-3-carbonyl)glycyl)pyrrolidine-2-carboxamide]	< 100 nM
C[C@@H](NC(=O)[C@@H]1C[C@@H](OC(F)F)CN1C(=O)CNC(=O)c1ccc2c(c1)sc1ccccc12)c1cc(C(=N)N)cs1 [Compound 352, (2S,4R)—N—((R)-1-(4-carbamimidoylthiophen-2-yl)ethyl)-1-((dibenzo[b,d]thiophene-3-carbonyl)glycyl)-4-(difluoromethoxy)pyrrolidine-2-carboxamide]	< 100 nM
N=C(N)c1csc(CNC(=O)[C@@H]2CC3(CN2C(=O)CNC(=O)c2ccc(-c4cnn(Cc5ccccc5)c4)cc2)OCCO3)c1 [Compound 198, (S)-7-((4-(1-benzyl-1H-pyrazol-4-yl)benzoyl)glycyl)-N-((4-carbamimidoylthiophen-2-yl)methyl)-1,4-dioxa-7-azaspiro[4.4]nonane-8-carboxamide]	< 100 nM
C[C@@H](NC(=O)[C@@H]1C[C@](F)(CF)CN1C(=O)CNC(=O)c1ccc2c(c1)C(F)(F)c1ccccc1-2)c1cc(C(=N)N)cs1 [Compound 263, (2S,4R)—N—((R)-1-(4-carbamimidoylthiophen-2-yl)ethyl)-1-((9,9-difluoro-9H-fluorene-2-carbonyl)glycyl)-4-fluoro-4-(fluoromethyl)pyrrolidine-2-carboxamide]	< 100 nM
C[C@@H](NC(=O)[C@@H]1C[C@](F)(CF)CN1C(=O)CNC(=O)c1ccc2cc3ccccc3cc2c1)c1cc(C(=N)N)cs1 [Compound 235, (2S,4R)-1-((anthracene-2-carbonyl)glycyl)-N—((R)-1-(4-carbamimidoylthiophen-2-yl)ethyl)-4-fluoro-4-(fluoromethyl)pyrrolidine-2-carboxamide]	< 100 nM
N=C(N)c1csc(CNC(=O)[C@@H]2CC3(CN2C(=O)CNC(=O)c2ccc(-c4ccc(F)cc4)o2)OCCO3)c1 [Compound 299, (S)—N-((4-carbamimidoylthiophen-2-yl)methyl)-7-((5-(4-fluorophenyl)furan-2-carbonyl)glycyl)-1,4-dioxa-7-azaspiro[4.4]nonane-8-carboxamide]	< 100 nM
C[C@@H](NC(=O)[C@@H]1C[C@@H](S(=O)(=O)C2CC2)CN1C(=O)CNC(=O)c1ccc2c(c1)-c1ccccc1C2(F)F)c1cc(C(=N)N)cs1 [Compound 351, (2S,4R)—N—((R)-1-(4-carbamimidoylthiophen-2-yl)ethyl)-4-(cyclopropylsulfonyl)-1-((9,9-difluoro-9H-fluorene-3-carbonyl)glycyl)pyrrolidine-2-carboxamide]	< 100 nM
